pIC50: −log10 of the molar value.
Columns and labels:
[1] = In vivo perfused liver: absorption from portal vein blood and excretion into the bile; design: species or system rat; conditions: after W (Chlorambucil) into mesenteric vein
Method: In order to investigate a selective absorption of bile acid derivatives into the liver and their hepatotropic action, the appropriate derivatives were injected as a bolus into a mesenteric vein of anesthetized rats and the excretion of these derivatives and the corresponding active compounds or active compound metabolites into the bile was analysed.
Male Sprague-Dawley rats (300-500 g bodyweight) had their food withdrawn and received water ad libitum. After tracheotomy, the abdomen was opened by median section under urethane anesthesia ([…] i.m. urethane 30%). The pylorus was ligated and the bile duct was cannulated by advancing a polyethylene tube (d=0.05 mm) up to the liver and the bile was drained. The volume of secretion was measured at 15 minute intervals. After a preliminary period of 60 minutes, the substances (0.5 ml of a 1 mM solution in 0.9% NaCl solution) were administered into a mesenteric vein in the course of 30 sec and the bile was collected at prestated time intervals (2, 4, 6, 8, 10, 15, 20, 30, 40, 50, 60, 70, 80, 90, 100, 110 and 120 min). The bile acid derivative was administered first, and the appropriate active compound was administered after a collection period of 2 hours. 120 min after administration of test substance, the bladder volume was measured and the urine was also collected. The bile and urine samples were stored on ice during the experiment and then deep-frozen.
Each 10 μl bile sample was applied to TLC plates (10×20 cm, silica gel 60 specific layer thickness 0.25 mm, No. 37581 Riedel de Haen, Seelze, Federal Republic of Germany) using Microcaps (Drummond, Broomall, USA) and the thin-layer plates were dried in the air for 20 min.
The plates were developed in the following mobile phases: Substance Mobile phase
The constituents of the mobile phases were bought from the usual manufacturers in the highest possible purity grade. After developing and drying the plates, the distribution of the active compounds and the bile acid derivatives, or their metabolites, was determined by densitometry (CD 50 densitometer, DESAGA; Heidelberg). Detection was carried out in reflection mode with linear sampling at the wavelengths 252 nm (chlorambucil/chlorambucil conjugate) or 260 nm (remaining substances).
In order to evaluate the chromatograms, the relative intensity of the bile acid derivatives, the active compounds or the active compound metabolites on a chromatogram was given in surface area units.

[2] = target: T1, Na+-dependent bile acid transport system (Oryctolagus cuniculus, UniProt Q28727); assay: Inhibition of Na+-dependent [3H]taurocholate absorption into brush-border membrane vesicles of the ileum; assay type: biochemical, rabbit
T1 construct: brush-border membrane vesicles from the ileum of rabbits; from tissue; host or cells: terminal ileum of male New Zealand rabbits, brush-border membrane vesicles
T1 sequence (Q28727 1-347): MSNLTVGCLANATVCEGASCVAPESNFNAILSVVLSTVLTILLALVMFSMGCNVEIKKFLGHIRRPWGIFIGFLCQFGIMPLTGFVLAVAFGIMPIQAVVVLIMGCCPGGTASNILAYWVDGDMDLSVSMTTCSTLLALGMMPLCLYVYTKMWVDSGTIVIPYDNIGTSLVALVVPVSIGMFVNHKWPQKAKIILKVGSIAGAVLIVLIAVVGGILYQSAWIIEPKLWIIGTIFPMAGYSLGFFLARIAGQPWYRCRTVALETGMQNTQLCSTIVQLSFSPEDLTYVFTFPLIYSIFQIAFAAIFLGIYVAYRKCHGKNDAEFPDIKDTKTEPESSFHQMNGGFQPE
Method: The preparation of brush-border membrane vesicles from the intestinal cells of the small intestine was carried out using the so-called Mg^2+ precipitation method. Male New Zealand rabbits (2-2.5 kg body weight) were sacrificed by intravenous injection of 0.5 ml of T-61^R. The small intestine was removed and rinsed with ice-cold physiological saline solution. The terminal 3/10 of the small intestine (measured in the oral-rectal direction, i.e. the terminal ileum, which contains the active Na^+ -dependent bile acid transport system) were used for preparation of the brush-border membrane vesicles. The intestines were frozen at -80° C. under nitrogen in plastic bags. The frozen intestines were thawed in a water bath at 30° C. in order to prepare the membrane vesicles. The mucosa was scraped off and suspended in 60 ml of ice-cold 12 mM trys/HCl buffer (pH 7.1)/300 mM mannitol, 5 mM EGTA/10 mg/l of phenylmethylsulfonyl fluoride/1 mg/l of soybean trypsin inhibitor (32 U/mg)/0.5 mg/l of bovine lung trypsin inhibitor (193 U/mg)/5 mg/l of bacitracin. After diluting to 300 ml with ice-cold distilled water, the suspension was homogenized with ice-cooling for 3 minutes at 75% of maximum power using an Ultraturrax (18 rod, IKA Werk Staufen, Federal Republic of Germany). After addition of 3 ml of 1M MgCl2 solution (final concentration 10 mM), the homogenate was allowed to stand at 0° C. for exactly 1 minute. As a result of addition of Mg^2+, the cell membranes aggregate and precipitate with the exception of the brush-border membranes. After centrifugation at 3,000×g (5,000 rpm, SS-34 rotor) for 15 minutes, the precipitate is discarded and the supernatant which contains the brush-border membranes is centrifuged at 26,700×g (15,000 rpm, SS-34 rotor) for 30 minutes. The supernatant was discarded, and the precipitate was rehomogenized in 60 ml of 12 mM tris/HCl buffer (pH 7.1)/60 mM mannitol, 5 mM EGTA using a Potter Elvejhem homogenizer (Braun Melsungen, 900 rpm, 10 strokes). After addition of 0.1 ml of 1M MgCl2 solution and an incubation time of 15 minutes at 0° C., the mixture was again centrifuged at 3,000×g for 15 minutes. The supernatant was then again centrifuged at […] (15,000 rpm, SS-34 rotor) for 30 minutes. The precipitate was taken up in 30 ml of 10 mM tris/hepes buffer (pH 7.4)/300 mM mannitol and homogeneously resuspended by 20 strokes in a Potter Elvejhem homogenizer at 1,000 rpm. After centrifugation at 48,000×g (20,000 rpm, SS-34 rotor) for 30 minutes, the precipitate was taken up in 0.5 to 2 ml of tris/hepes buffer (pH 7.4)/280 mM mannitol (final concentration 20 mg/ml) and resuspended with the aid of a tuberculin syringe using a 27 gauge needle. The vesicles were either used immediately after preparation for transport investigations or stored at -196° C. in liquid nitrogen in 4 mg portions.
The absorption of substrates into brush-border membrane vesicles was determined by means of the so-called membrane filtration technique. 10 μl of the vesicle suspension (100 μg of protein) were pipetted on the wall of a polystyrene incubation tube (11×70 mm) as a drop which contained the incubation medium together with the corresponding ligands (90 μl ). […] The incubation medium was filtered through a polyvinylidene fluoride membrane filter (SYHV LO 4NS, 0.45 μm, 4 mm .phi., Millipore, Eschborn, Federal Republic of Germany). The transport measurement was begun by mixing the vesicles with the incubation medium. […] After the desired incubation time (customarily 1 min), the transport was stopped by addition of 1 ml of ice-cold stop solution (10 mM tris/hepes, (pH 7.4)/150 mM KCl). The resulting mixture was immediately filtered off with suction in a vacuum of 25 to 35 mbar through a membrane filter made of cellulose nitrate (ME 25, 0.45 μm, 25 mm diameter, Schleicher & Schuell, Dassell, Federal Republic of Germany). The filter was subsequently washed with 5 ml of ice-cold Stop solution.

| Structure (SMILES) | Conc. of W or a metabolite of W in bile ([1]; bile at 2 min) [surface area units] | Conc. of W or a metabolite of W in bile ([1]; bile at 4 min) [surface area units] | Conc. of W or a metabolite of W in bile ([1]; bile at 6 min) [surface area units] | Conc. of W or a metabolite of W in bile ([1]; bile at 8 min) [surface area units] | Conc. of W or a metabolite of W in bile ([1]; bile at 10 min) [surface area units] | Conc. of W or a metabolite of W in bile ([1]; bile at 15 min) [surface area units] | Conc. of W or a metabolite of W in bile ([1]; bile at 20 min) [surface area units] | Conc. of W or a metabolite of W in bile ([1]; bile at 30 min) [surface area units] | Conc. of W or a metabolite of W in bile ([1]; bile at 40 min) [surface area units] | Conc. of W or a metabolite of W in bile ([1]; bile at 60 min) [surface area units] | Conc. of W or a metabolite of W in bile ([1]; bile at 70 min) [surface area units] | Conc. of W or a metabolite of W in bile ([1]; bile at 80 min) [surface area units] | Conc. of W or a metabolite of W in bile ([1]; bile at 90 min) [surface area units] | Conc. of W or a metabolite of W in bile ([1]; bile at 100 min) [surface area units] | Conc. of W or a metabolite of W in bile ([1]; bile at 110 min) [surface area units] | Conc. of W or a metabolite of W in bile ([1]; bile at 120 min) [surface area units] | IC25 [2] [µM] | IC75 [2] [µM] | pIC50 ([2]; read-out: IC50) |
| --- | --- | --- | --- | --- | --- | --- | --- | --- | --- | --- | --- | --- | --- | --- | --- | --- | --- | --- | --- |
| O=C(O)CCCc1ccc(N(CCCl)CCCl)cc1 [Chlorambucil, [4-(bis-N-(2'-chloroethyl)-aminophenyl)]-butyric acid, reference compound] | 1012 | 885 | 1044 | 1160 | 810 | 689 | 1481 | 704 | 511 | 620 | 1769 | 501 | 813 | 523 | 604 | 531 | – | – | – |
| CC(C)c1nc(-c2ccccc2)cc(-c2ccc(F)cc2)c1/C=C/[C@@H](O)C[C@@H](O)CC(=O)NCCO[C@H]1CC[C@@]2(C)[C@@H](C1)C[C@@H](O)[C@@H]1[C@@H]2C[C@H](O)[C@]2(C)[C@@H]([C@H](C)CCC(=O)O)CC[C@@H]12 [Example 85] | – | – | – | – | – | – | – | – | – | – | – | – | – | – | – | – | 18 | 64 | 4.37 |

From patent publication US5462933A, “Modified bile acid conjugates, and their use as pharmaceuticals” (Hoechst Aktiengesellschaft, priority 1989, dated 1995)
